This assay relates to SW 982 tumor spheroid viability. Kind of assay: Anticancer human tumor SW 982 cell line growth inhibition.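 On all read-outs here: spheroids exposed to compound for 7 days before readout.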 Particulars: spheroids with HUVEC and MSC; for viability, T/C: stronger effect = lower value. Put shortly: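 Complex tumor spheroids combined malignant cells with endothelial cells and mesenchymal stem cells. DNA-damaging drugs and DNA repair inhibitors were tested alone and in combination, at half-log dilutions down from clinical Cmax (top 10 microM if Cmax unknown), 0.25% DMSO final.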

“And” between values parts separate entries of the source, which are not always exact repeats. Equal entries are not always repeated.

As to `CC1COCCN1c1cc(-c2ccnn2C)c2ccnc(-c3ccn[nH]3)c2n1` (stereo not drawn) + CC[C@@]1(O)C(=O)OCc2c1cc1n(c2=O)Cc2cc3c(CN(C)C)c(O)ccc3nc2-1, the IC50 was under 31.6 nM (curve of first compound, second compound 0.003 µM); under 31.6 nM (curve of first compound, second compound 0.00949 µM); under 31.6 nM (curve of first compound, second compound 0.03 µM); under 31.6 nM (curve of first compound, second compound 0.0949 µM); under 31.6 nM (curve of first compound, second compound 0.3 µM). The viability, T/C (second compound 0.003 µM, first compound 0.0316 µM) is 24.8%; the viability, T/C (second compound 0.003 µM, first compound 0.1 µM) is 17.2%; the viability, T/C (second compound 0.003 µM, first compound 0.316 µM) is 12.2%; the viability, T/C (second compound 0.003 µM, first compound 1 µM) is 7.73%; the viability, T/C (second compound 0.003 µM, first compound 3.16 µM) was 9.86%; the viability, T/C (second compound 0.003 µM, first compound 10 µM) was 13.6%. The viability, T/C (second compound 0.00949 µM, first compound 0.0316 µM) was 16.3%; the viability, T/C (second compound 0.00949 µM, first compound 0.1 µM) is 14.9%; the viability, T/C (second compound 0.00949 µM, first compound 0.316 µM) was 10.3%; the viability, T/C (second compound 0.00949 µM, first compound 1 µM) was 8.21%; the viability, T/C (second compound 0.00949 µM, first compound 3.16 µM) was 9.89%; the viability, T/C (second compound 0.00949 µM, first compound 10 µM) is 12.6%. In addition, the viability, T/C is 18.2% (second compound 0.03 µM, first compound 0.0316 µM); 10.3% (second compound 0.03 µM, first compound 0.1 µM); 8.15% (second compound 0.03 µM, first compound 0.316 µM); 7.1% (second compound 0.03 µM, first compound 1 µM); 10.2% (second compound 0.03 µM, first compound 3.16 µM); 13.3% (second compound 0.03 µM, first compound 10 µM). Moreover, the viability, T/C (second compound 0.0949 µM, first compound 0.0316 µM) is 12.1%; the viability, T/C (second compound 0.0949 µM, first compound 0.1 µM) is 11.4%; the viability, T/C (second compound 0.0949 µM, first compound 0.316 µM) is 9.49%; the viability, T/C (second compound 0.0949 µM, first compound 1 µM) was 8.79%; the viability, T/C (second compound 0.0949 µM, first compound 3.16 µM) was 9.28%; the viability, T/C (second compound 0.0949 µM, first compound 10 µM) is 12%. For the same compound, the viability, T/C was 12.1% (second compound 0.3 µM, first compound 0.0316 µM); 8.63% (second compound 0.3 µM, first compound 0.1 µM); 7.14% (second compound 0.3 µM, first compound 0.316 µM); 6.54% (second compound 0.3 µM, first compound 1 µM); 7.28% (second compound 0.3 µM, first compound 3.16 µM); 7.84% (second compound 0.3 µM, first compound 10 µM).

`COc1cc2c(cc1O)CCNC21CSC2c3c(OC(C)=O)c(C)c4c(c3C(COC1=O)N1C(O)C3Cc5cc(C)c(OC)c(O)c5C(C21)N3C)OCO4` (stereo not drawn): the viability, T/C (compound 0.003 µM) is 0.57% [middle of 10 runs]. Besides, the IC50 (compound alone, run of 12/12/2019) is 0.667 nM [middle of 10 runs].

On to `Cc1sc2c(c1C)C(c1ccc(Cl)cc1)=NC(CC(=O)Nc1ccc(O)cc1)c1nnc(C)n1-2` (stereo not drawn), for which the viability, T/C reads like this: (compound 0.00949 µM) 102% (2×) and 124%; (compound 0.03 µM) 105% and 104% and 90.7%; (compound 0.0949 µM) 79.4% and 83.4% and 72.8%; (compound 0.3 µM) 48.1% and 59.7% and 50.1%; (compound 0.949 µM) 35.9% and 35.4% and 29.1%; (compound 3 µM) 29.3% and 33.5% and 24.2%. Also, the half-maximal inhibitory concentration (IC50) (curve of compound) is 277 nM and 490 nM and 282 nM.

For `CC1COCCN1c1cc(-c2ccnn2C)c2ccnc(-c3ccn[nH]3)c2n1` (stereo not drawn), the viability, T/C is 27.4% and 44.4% and 38.4% (compound 0.0316 µM); 20.4% and 25.4% and 17.1% (compound 0.1 µM); 16.2% and 17.9% and 12.3% (compound 0.316 µM); 13.2% and 15.2% and 10.5% (compound 1 µM); 20% and 15.6% and 11% (compound 3.16 µM); 22.1% and 22.6% and 14.1% (compound 10 µM). The IC50 (curve of compound) was under 31.6 nM.

For the compound `Cc1cc(C)c(CNC(=O)c2cc(-c3ccc(CN4CCOCC4)cc3)cc3c2cnn3C2CCCC2)c(=O)[nH]1` + Cn1nnc2c(C(N)=O)ncn2c1=O, the IC50 by setting is: (curve of first compound, second compound 1 µM) over 10000 nM; (curve of first compound, second compound 3.16 µM) over 10000 nM; (curve of first compound, second compound 10 µM) over 10000 nM; (curve of first compound, second compound 31.6 µM) over 10000 nM; (curve of first compound, second compound 100 µM) over 10000 nM. In addition, the viability, T/C is 102% (second compound 1 µM, first compound 0.0316 µM); 104% (second compound 1 µM, first compound 0.1 µM); 103% (second compound 1 µM, first compound 0.316 µM); 103% (second compound 1 µM, first compound 1 µM); 92.1% (second compound 1 µM, first compound 3.16 µM); 91.2% (second compound 1 µM, first compound 10 µM). In addition, the viability, T/C runs as follows: (second compound 3.16 µM, first compound 0.0316 µM) 88.4%; (second compound 3.16 µM, first compound 0.1 µM) 99.2%; (second compound 3.16 µM, first compound 0.316 µM) 101%; (second compound 3.16 µM, first compound 1 µM) 96.6%; (second compound 3.16 µM, first compound 3.16 µM) 92.3%; (second compound 3.16 µM, first compound 10 µM) 70.6%. Besides, the viability, T/C (second compound 10 µM, first compound 0.0316 µM) is 86.7%; the viability, T/C (second compound 10 µM, first compound 0.1 µM) is 82.6%; the viability, T/C (second compound 10 µM, first compound 0.316 µM) was 81.3%; the viability, T/C (second compound 10 µM, first compound 1 µM) was 82.8%; the viability, T/C (second compound 10 µM, first compound 3.16 µM) is 82.2%; the viability, T/C (second compound 10 µM, first compound 10 µM) is 53.4%. The viability, T/C is, setting by setting: (second compound 31.6 µM, first compound 0.0316 µM) 73.8%; (second compound 31.6 µM, first compound 0.1 µM) 69%; (second compound 31.6 µM, first compound 0.316 µM) 74.9%; (second compound 31.6 µM, first compound 1 µM) 73.5%; (second compound 31.6 µM, first compound 3.16 µM) 74.4%; (second compound 31.6 µM, first compound 10 µM) 58.7%. Moreover, the viability, T/C is 58.9% (second compound 100 µM, first compound 0.0316 µM); 63% (second compound 100 µM, first compound 0.1 µM); 57.7% (second compound 100 µM, first compound 0.316 µM); 63.5% (second compound 100 µM, first compound 1 µM); 55.3% (second compound 100 µM, first compound 3.16 µM); 53.8% (second compound 100 µM, first compound 10 µM).

For `O=C(c1cc(Cc2n[nH]c(=O)c3ccccc23)ccc1F)N1CCN(C(=O)C2CC2)CC1`, the viability, T/C is, setting by setting: (compound 0.0949 µM) 99.7% and 104% and 98.4%; (compound 0.3 µM) 102% and 97.7% and 100%; (compound 0.949 µM) 96.9% and 88.7% and 98.6%; (compound 3 µM) 79.8% and 87.7% and 85.5%; (compound 9.49 µM) 63.3% and 54.4% and 49.8%; (compound 30 µM) 47.1% and 43.4% and 46.1%. The IC50 (curve of compound) is 24700 nM and 15800 nM and 9440 nM.

Broadly, the IC50 is the concentration that gives 50% inhibition. Usually viability, T/C stands for the ratio of treated to control.
